Tests used:
Assay type in all cases: binding
bovine OBP (6-His-bOBP) [1] = target: T1, bovine OBP (6-His-bOBP) (Bos taurus, UniProt P07435); assay: direct fluorescence titration
T1 construct: domain-swapped homodimer
T1 sequence (P07435 1-159): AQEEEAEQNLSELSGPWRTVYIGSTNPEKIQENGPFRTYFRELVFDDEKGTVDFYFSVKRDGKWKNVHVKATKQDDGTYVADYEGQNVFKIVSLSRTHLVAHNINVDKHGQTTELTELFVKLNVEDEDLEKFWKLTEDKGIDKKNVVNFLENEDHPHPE

porcine OBP (6-His-pOBP) [2] = target: T2, porcine OBP (6-His-pOBP) (Sus scrofa, UniProt P81245); assay: direct fluorescence titration
T2 construct: monomer
T2 sequence (P81245 1-157): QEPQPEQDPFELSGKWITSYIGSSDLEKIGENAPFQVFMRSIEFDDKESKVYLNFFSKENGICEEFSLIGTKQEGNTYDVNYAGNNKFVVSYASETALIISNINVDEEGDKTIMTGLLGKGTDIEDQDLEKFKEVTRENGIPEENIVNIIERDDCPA

bovine OBP (6-His-bOBP) [3] = target: T1, bovine OBP (6-His-bOBP); assay: retention on OBP-Ni-NTA agarose filter; chromatography-MS; conditions: 10-40 μM ligand loaded; submillimolar immobilised OBP; uncoupled resin as control
bovine OBP (6-His-bOBP) [4] = target: T1, bovine OBP (6-His-bOBP); assay: competitive displacement of 1-aminoanthracene, fluorescence; conditions: read-out: Kdapp
porcine OBP (6-His-pOBP) [5] = target: T2, porcine OBP (6-His-pOBP); assay: as above; conditions: read-out: Kdapp
porcine OBP (6-His-pOBP) [6] = target: T2, porcine OBP (6-His-pOBP); assay: retention on OBP-Ni-NTA agarose filter, chromatography-MS; conditions: 0.34 μM ligand loaded; submillimolar immobilised OBP
porcine OBP (6-His-pOBP) [7] = target: T2, porcine OBP (6-His-pOBP); assay: retention on OBP-Ni-NTA agarose filter; eluate quantified; conditions: 5 and 10 μM ligand loaded; submillimolar immobilised OBP; uncoupled resin as control

Work on Nc1cccc2cc3ccccc3cc12 [1-aminoanthracene] yielded a Kd (bovine OBP (6-His-bOBP) [1]) of 720 nM and a Kd (porcine OBP (6-His-pOBP) [2]) of 770 nM.
With CCCC(=O)N[C@H]1CCOC1=O [C4AHL, N-butyryl-L-homoserine-lactone] the “% retention” value (bovine OBP (6-His-bOBP) [3]) was 63.2±5.8%-80.6±4.2%.
Work on CC(C)=CCC/C(C)=C/CC/C(C)=C/CO [farnesol] yielded an IC50 (bovine OBP (6-His-bOBP) [4]) of 3700 nM and an IC50 (porcine OBP (6-His-pOBP) [5]) of 770 nM.
CCCCCCCCCC(=O)CC(=O)N[C@H]1CCOC1=O [oxo-C12AHL, N-(3-oxododecanoil)-L-homoserine-lactone] was tested, and the “% bound” value (porcine OBP (6-His-pOBP) [6]) was 89.2±2.4%.
In the case of Cn1c2cccc(=O)c-2nc2ccccc21 [pyocyanin], the “% retention” value (porcine OBP (6-His-pOBP) [7]) is reported as 66±13% and 85±15%.

Source: paper PMC6430387, “Vertebrate odorant binding proteins as antimicrobial humoral components of innate immunity for pathogenic microorganisms” (PLoS ONE, 2019)
